Source: PMC9181126, “Design, Synthesis, Molecular Docking Analysis and Biological Evaluations of 4-[(Quinolin-4-yl)amino]benzamide Derivatives as Novel Anti-Influenza Virus Agents” (International Journal of Molecular Sciences, 2022)

What was measured:
[1] = tested on: influenza virus A/WSN/33 (H1N1); experiment: microbe, parasite or virus in culture; type: cell-based; details: MDCK, 72 h; for inhibition at 12.5 µM / inhibition at 25 µM / inhibition at 50 µM / inhibition at 100 µM: H1N1|WSN, read-out: Antiviral activity in CPE assay; for EC50: read-out: Cytopathic Effect Assay (A/WSN/33, H1N1) EC50
[2] = in vitro; type: cell-based; details: human
Outline: (§1)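 Cells were seeded and compound medium added after 48 h, then incubated 72 h at 37 °C, 5% CO2. Viability was measured by MTT (4 h), then solubilization and absorbance at 620 nm after a further 3 h. DMSO-only wells were taken as 100% viable.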

[3] = tested on: HEK293T cells; experiment: in vitro; type: cell-based; details: human, 72 h
Outline: as §1

[4] = in vitro; type: cell-based, canine; details: dog
Outline: as §1

[5] = tested on: MDCK cells; experiment: in vitro; type: cell-based, canine; details: dog, 72 h
Outline: as §1

[6] = tested on: influenza virus A/WSN/33 (H1N1); experiment: Plaque inhibition assay in MDCK cells; type: cell-based; details: MDCK; concentration 100 µM; read-out: Plaque Inhibition Assay (A/WSN/33, H1N1) Inhibition Rate
[7] = target: ribonucleoprotein (RNP) of influenza virus (Influenza A virus, UniProt P15659); experiment: cell-based; details: HEK-293T; concentration 100 µM; read-out: RNP Reconstitution Assay Inhibition Rate

Row | SMILES | inhibition at 12.5 µM [1] [%] | inhibition at 25 µM [1] [%] | inhibition at 50 µM [1] [%] | inhibition at 100 µM [1] [%] | EC50 [1] [µM] | CC50 at 72 h [2] [µM] | HEK293T cells survival rate ([3]; 3.125 µmol·L−1) [%] | HEK293T cells survival rate ([3]; 6.25 µmol·L−1) [%] | HEK293T cells survival rate ([3]; 12.5 µmol·L−1) [%] | HEK293T cells survival rate ([3]; 25 µmol·L−1) [%] | HEK293T cells survival rate ([3]; 50 µmol·L−1) [%] | HEK293T cells survival rate ([3]; 100 µmol·L−1) [%] | CC50 at 72 h [4] [µM] | MDCK cells survival rate ([5]; 12.5 µmol·L−1) [%] | MDCK cells survival rate ([5]; 25 µmol·L−1) [%] | MDCK cells survival rate ([5]; 50 µmol·L−1) [%] | MDCK cells survival rate ([5]; 100 µmol·L−1) [%] | inhibition at 100 µM [6] [%] | melting point [°C] | inhibition at 100 µM [7] [%]
1 | O=C(NCCCO)c1ccc(Nc2ccnc3cc(C(F)(F)F)ccc23)cc1 [Compound G05, N-(3-Hydroxypropyl)-4-{[7-(trifluoromethyl)quinolin-4-yl]amino}benzamide] | 42 ± 5.5 | 48.6 ± 2.31 | 50.2 ± 1.8 | 56 ± 4.37 | 40.9 ± 5.64 | > 100 | 106.06±4.46 | 109.11±25.17 | 96.82±2.21 | 95.07±1.76 | 93.06±1.61 | 122.90±10.09 | > 100 | 113.26±1.76 | 110.22±4.44 | 101.63±4.85 | 111.87±2.49 | 82.9 | 249.6 to 250.4 | 17.6
2 | O=C(c1ccc(Nc2ccnc3cc(C(F)(F)F)ccc23)cc1)N1CCOCC1 [Compound G12, Morpholino{4-{[7-(trifluoromethyl)quinolin-4-yl]amino}phenyl}methanone] | 70.9 ± 4.82 | 97.6 ± 3.67 | 75.7 ± 9.49 | 76.7 ± 5.27 | > 100 | > 100 | 100.47±5.92 | 89.50±2.30 | 86.67±6.98 | 88.50±7.54 | 80.68±3.36 | 74.00±4.57 | > 100 | 92.77±4.37 | 137.81±3.21 | 130.46±5.65 | 120.48±10.37 | < 10 | 277.9 to 278.7 | 50
3 | CC(C)NC(=O)c1ccc(Nc2ccnc3cc(C(F)(F)F)ccc23)cc1 [Compound G02, N-Isopropyl-4-{[7-(trifluoromethyl)quinolin-4-yl]amino}benzamide] | 53.6 ± 3.38 | 61.6 ± 2.13 | 76.7 ± 2.26 | 80.6 ± 9.03 | 10.1 ± 1.66 | > 100 | 95.91±3.00 | 87.90±2.52 | 85.31±11.55 | 74.04±2.91 | 75.54±11.17 | 66.13±2.32 | > 100 | 153.38±36.06 | 137.54±0.71 | 140.08±12.49 | 203.79±6.42 | < 10 | 243.7 to 245.9 | 3.1
4 | CCNC(=O)c1ccc(Nc2ccnc3cc(C(F)(F)F)ccc23)cc1 [Compound G01, N-Ethyl-4-{[7-(trifluoromethyl)quinolin-4-yl]amino}benzamide] | 48 ± 4.04 | 56.6 ± 3.96 | 53 ± 4.28 | 70.9 ± 2.63 | 16.5 ± 5.57 | > 100 | 91.00±7.40 | 90.01±2.87 | 93.22±5.27 | 92.83±4.26 | 88.18±3.27 | 94.92±8.61 | > 100 | 123.45±5.51 | 112.08±3.35 | 121.65±8.73 | 160.62±4.70 | 81.6 | 262.8 to 264.5 | 21
